Data from US20040102454A1, “Phenylahistin and the phenylahistin analogs, a new class of anti-tumor compounds” (priority 1998, published 2004).

Assays:
Assay in all cases: HCC panel assay, sulforhodamine B
Type in all cases: cell-based
A549 = conditions: A549, Lung, (−)-PLH content 24.1%
Protocol: (§1) The antitumor activity of PLH was evaluated by the Human Cancer Cell Line Panel (HCC panel) assay, see Yamori T., Jap. J Cancer Chemother., (1997), 24, 129-35. This HCC panel consists of 38 tumor cell lines including 7 lung cancer, 6 stomach, 6 colon, 5 ovary, 6 central nerve system, 5 breast, 2 kidney and 1 melanoma cell lines. Each tumor cell was seeded in 96-well tissue culture plates and incubated overnight. Various concentrations (5 doses; final 10^−4, 10^−5, 10^−6, 10^−7 and 10^−8 M) of PLH were added, and the cells were incubated for 48 hours. […] All mice were obtained from Japan SLC (Shizuoka, Japan), P388 leukemia cells were obtained from Dainippon Pharmaceuticals Inc. (Osaka, Japan), Lewis Lung Carcinoma from Riken Cell Bank (Tsukuba, Japan), and Colon 26 cells from the National Cancer Center, Japan (Tokyo, Japan).

BSY-1 = conditions: BSY-1, Breast, (−)-PLH content 24.1%
Protocol: as §1

HCC2998 = conditions: HCC2998, Colon, (−)-PLH content 24.1%
Protocol: as §1

HCT-15 = conditions: HCT-15, Colon, (−)-PLH content 24.1%
Protocol: as §1

LOX-IMVI = conditions: Melanoma, (−)-PLH content 24.1%
Protocol: as §1

MDA-MB-231 = conditions: MDA-MB-231, Breast, (−)-PLH content 24.1%
Protocol: as §1

MKN28 = conditions: MKN28, Stomach, (−)-PLH content 24.1%
Protocol: as §1

MKN45 = conditions: MKN45, Stomach, (−)-PLH content 24.1%
Protocol: as §1

NCI-H226 = conditions: NCI-H226, Lung, (−)-PLH content 24.1%
Protocol: as §1

NCI-H460 = conditions: NCI-H460, Lung, (−)-PLH content 24.1%
Protocol: as §1

NCI-H522 = conditions: NCI-H522, Lung, (−)-PLH content 24.1%
Protocol: as §1

OVCAR-4 = conditions: OVCAR-4, Ovary, (−)-PLH content 24.1%
Protocol: as §1

OVCAR-5 = conditions: OVCAR-5, Ovary, (−)-PLH content 24.1%
Protocol: as §1

RXF-6311 = conditions: RXF-6311, Renal, (−)-PLH content 24.1%
Protocol: as §1

SF-268 = conditions: SF-268, CNS, (−)-PLH content 24.1%
Protocol: as §1

SF-295 = conditions: SF-295, CNS, (−)-PLH content 24.1%
Protocol: as §1

SF-539 = conditions: SF-539, CNS, (−)-PLH content 24.1%
Protocol: as §1

SK-OV-3 = conditions: SK-OV-3, Ovary, (−)-PLH content 24.1%
Protocol: as §1

SNB-75 = conditions: SNB-75, CNS, (−)-PLH content 24.1%
Protocol: as §1

WiDr = conditions: Colon, (−)-PLH content 24.1%
Protocol: as §1

[1] = Homo sapiens, read-out: GL50 (the source's name)
[2] = Homo sapiens, read-out: LC50 (the source's name)

C=CC(C)(C)c1[nH]cnc1/C=C1\NC(=O)[C@H](Cc2ccccc2)NC1=O (racemic) [PLH, phenylahistin]
TGI (A549): >100000 nM
IC50 (A549; [1]): 970 nM
CC50 (A549; [2]): > 100000 nM
TGI (BSY-1): 670 nM
IC50 (BSY-1; [1]): 230 nM
CC50 (BSY-1; [2]): > 100000 nM
TGI (HCC2998): 5300 nM
IC50 (HCC2998; Homo sapiens, HCC 2998, read-out: GL50 (the source's name)): 1100 nM
CC50 (HCC2998; Homo sapiens, HCC 2998, read-out: LC50 (the source's name)): > 100000 nM
TGI (HCT-15): >100000 nM
IC50 (HCT-15; [1]): 490 nM
CC50 (HCT-15; [2]): > 100000 nM
IC50 (LOX-IMVI; [1]): 1300 nM
CC50 (LOX-IMVI; [2]): > 100000 nM
TGI (LOX-IMVI): >100000 nM
IC50 (MDA-MB-231; [1]): 640 nM
CC50 (MDA-MB-231; [2]): > 100000 nM
TGI (MDA-MB-231): 6000 nM
IC50 (MKN28; Homo sapiens, MKN-28, read-out: GL50 (the source's name)): 420 nM
CC50 (MKN28; Homo sapiens, MKN-28, read-out: LC50 (the source's name)): > 100000 nM
TGI (MKN28): >100000 nM
IC50 (MKN45; Homo sapiens, MKN-45, read-out: GL50 (the source's name)): 1500 nM
CC50 (MKN45; Homo sapiens, MKN-45, read-out: LC50 (the source's name)): > 100000 nM
TGI (MKN45): >100000 nM
IC50 (NCI-H226; [1]): 410 nM
CC50 (NCI-H226; [2]): > 100000 nM
TGI (NCI-H226): 31000 nM
IC50 (NCI-H460; [1]): 410 nM
CC50 (NCI-H460; [2]): > 100000 nM
TGI (NCI-H460): >100000 nM
IC50 (NCI-H522; [1]): 250 nM
CC50 (NCI-H522; [2]): > 100000 nM
TGI (NCI-H522): 810 nM
IC50 (OVCAR-4; [1]): 40000 nM
CC50 (OVCAR-4; [2]): > 100000 nM
TGI (OVCAR-4): >100000 nM
IC50 (OVCAR-5; [1]): 1200 nM
CC50 (OVCAR-5; [2]): > 100000 nM
TGI (OVCAR-5): >100000 nM
IC50 (RXF-6311; [1]): 1900 nM
CC50 (RXF-6311; [2]): > 100000 nM
TGI (RXF-6311): >100000 nM
IC50 (SF-268; [1]): 410 nM
CC50 (SF-268; [2]): > 100000 nM
TGI (SF-268): >100000 nM
IC50 (SF-295; [1]): 320 nM
CC50 (SF-295; [2]): > 100000 nM
TGI (SF-295): 2400 nM
IC50 (SF-539; [1]): 230 nM
CC50 (SF-539; [2]): 11000 nM
TGI (SF-539): 600 nM
IC50 (SK-OV-3; [1]): 370 nM
CC50 (SK-OV-3; [2]): > 100000 nM
TGI (SK-OV-3): >100000 nM
IC50 (SNB-75; [1]): 370 nM
CC50 (SNB-75; [2]): > 100000 nM
TGI (SNB-75): >100000 nM
TGI (WiDr): 790 nM
IC50 (WiDr; [1]): 270 nM
CC50 (WiDr; [2]): > 100000 nM
